This is an account of results in PMC12797238 (ACS Infectious Diseases, 2025).

In test [1] the test system is Toxoplasma tachyzoites mitochondrion. Briefly: Toxoplasma mitochondrial membrane potential (MitoTracker, cytometry and microscopy). In kind it is cell-based, Toxoplasma gondii. Particulars: 24 h at 3× EC50; for Mitotracker staining of T. gondii, microscopic observation: FCCP as uncoupler control. How it is done: We used the MitoTracker Deep Red FM fluorescent probe (Invitrogen) to assess the mitochondrial membrane potential in Toxoplasma tachyzoites. […] After another 24 h of culture at 37 °C and 5% CO2, Mitotracker labeling was performed as described in the protocol provided by the manufacturer, with a 45 min incubation at 37 °C and 5% CO2 of the reconstituted dye diluted to 1/1000 in culture medium. Parasites were then fixed for 30 min in 4% (w/v) PFA (diluted in PBS), washed twice in PBS, scraped, syringed (with a 25 G needle), filtered on a 40 μm membrane, and resuspended in 1 mL of PBS. Parasites were then analyzed with an Aurora spectral cytometer (Cytek), using a 633 nm excitation laser and a 665 nm detector. 10,000 events were recorded. Mean fluorescence was plotted against vehicle-treated culture parasites using Prism 8.0 (GraphPad Software), and statistical significance was determined using one-way ANOVA with Tukey’s multiple-comparison test. The experiment was performed for three biologically independent replicates. For the membrane depolarization control, parasites were treated with 10 μM FCCP for 30 min prior to and during incubation with the Mitotracker dye.
Intracellular parasites and the host cell monolayer were then fixed 24 h later with 4% (w/v) PFA (diluted in PBS) for 20 min, and after fixation, cells were permeabilized with 0.3% (v/v) Triton X-100 (diluted in PBS) for 10 min. Costaining with the anti-F1β ATPase mitochondrial marker was performed as described below.

Another test relates to Human BJ Fibroblast. Briefly: Drug sensitivity assay, dose–response curves, human BJ fibroblasts. Type of test: cell-based. Particulars: mean, n ≥ 3. The source says: (§1) Human fibroblasts, T. brucei, T. gambiense, P. falciparum, L. mexicana, and B. divergens were cultivated as described previously, and dose–response curves were obtained by their cultivation on 96 well plates in a 2-fold seriel dilution of the appropriate drug.

The subject of test [2] is Trypanosoma brucei bloodstream forms. Briefly: Drug sensitivity assay, dose–response curves, T. brucei. Type of test: cell-based. Conditions: for EC50: bloodstream forms, mean, n ≥ 3; for T. brucei selectivity: relative to human BJ fibroblast EC50.
Excerpt: as §1

The next test concerns T. gondii mitochondrion. Briefly: Toxoplasma immunofluorescence assay of organelle morphology. In kind it is cell-based, Toxoplasma gondii. Conditions: 24 h at 3× EC50; DFX at 60 nM. How it is done: For IFAs to assess organelle morphology, coverslips seeded with HFFs were infected with T. gondii tachyzoites, and 3 h later, compounds were added (at 3 times their respective EC50). Intracellular parasites and host cell monolayers were then fixed 24 h later with 4% (w/v) PFA (diluted in PBS) for 20 min. After fixation, cells were permeabilized with 0.3% (v/v) Triton X-100 (diluted in PBS) for 10 min. Coverslips were blocked with 2% (w/v) bovine serum albumin (BSA) for 1 h prior to immunolabeling with a primary antibody for 1 h. After 3 washes in PBS, a corresponding secondary antibody was incubated for 1 h. Coverslips were then incubated with 1 μg/mL of Hoechst stain for 5 min before 3 washes in PBS and, finally, mounted using Immu-Mount (Thermo Fisher) onto microscope slides. Primary antibodies used were prepared in 2% BSA (diluted in PBS) and used at the following concentrations: the apicoplast was stained using rabbit anti-PDH-E2 (1:500), the mitochondrion was stained using mouse anti-F1β ATPase (1:1000, gift of P. Bradley). Anti-mouse and anti-rabbit secondary antibodies were all from Thermo Fisher and were diluted at 1:4000. Image acquisition was performed with a Zeiss Axio Observer inverted microscope equipped with a Zeiss Axiocam 712 camera and 63×/1.4 or 100×/1.4 Oil Plan Achromat objectives. Images were processed with Zen Blue v3.6 software (Zeiss). Z-stack acquisitions were processed by a maximum-intensity orthogonal projection. Adjustments of brightness and contrast were applied uniformly, and paired images were acquired with the same exposure time. Quantifications of mitochondrial morphology were performed by microscopic observation of a series of at least 100 parasites, and data from three independent biological replicates was acquired and plotted using Prism 8.0 (GraphPad Software). Statistical significance was determined using one-way ANOVA with Tukey’s multiple-comparison test.

For test [3], the system named is Toxoplasma gondii tachyzoites (RH strain), intracellular stages. Briefly: T. gondii lytic cycle plaque assay in HFF monolayers. Type of test: cell-based. How it is done: T. gondii tachyzoites of the RH strain were routinely maintained through passages in a human foreskin fibroblasts (HFFs) monolayer (ATCC CRL-1634). HFFs and parasites were cultured in standard Dulbecco’s Modified Eagle Medium (DMEM), supplemented with 5% decomplemented fetal bovine serum (FBS), 2 mM L-glutamine, 100 U/mL penicillin, and 100 μg/mL streptomycin (Gibco) at 37 °C and with 5% CO2 in an incubator with a controlled atmosphere.
The lytic cycle of T. gondii tachyzoites was assessed by a plaque assay as described previously. Briefly, tachyzoites were allowed to invade monolayers of HFFs for 3 h before addition of the compounds or the DMSO vehicle and were subsequently cultivated for 7 days at 37 °C and 5% CO2. They were then fixed with 4% (w/v) paraformaldehyde (PFA, diluted in phosphate-buffered saline (PBS)) for 20 min and stained with a 0.1% crystal violet solution (V5265, Sigma-Aldrich), washed, and air-dried before imaging under an Olympus MVX10 microscope.
Figure S1. EC50 determination of selected compounds in Toxoplasma.
B) EC50 curves based on plaque
area measured from three independent plaque assays. Data are mean ± standard deviation. C)
vacuoles were counted for each con dition. Values represented are mean ± standard deviation of […]

Test [4] relates to Leishmania mexicana axenic amastigotes. Briefly: Drug sensitivity assay, dose–response curves, L. mexicana. Type of test: cell-based.
Excerpt: as §1

Test [5] concerns Plasmodium falciparum intracellular stages. Briefly: Drug sensitivity assay, dose–response curves, P. falciparum. In kind it is cell-based.
Excerpt: as §1

The test system of test [6] is Trypanosoma gambiense bloodstream forms. Briefly: Drug sensitivity assay, dose–response curves, T. gambiense. Type of test: cell-based.
Excerpt: as §1

The test system of test [7] is T. brucei 427 bloodstream form mitochondria. Briefly: Mitochondrial membrane potential in T. brucei (TMRE, flow cytometry). In kind it is cell-based, Trypanosoma brucei. Particulars: 24 h at 3× EC50. How it is done: The mitochondrial membrane potential of T. brucei 427 bloodstream form was assessed using the fluorescent probe TMRE (Thermo Fisher Scientific) as described in ref . […] Untreated cells and cells preincubated with a 50 μM CCCP uncoupler for 30 min were used as negative and positive controls, respectively. Approximately 1 × 10^6 cells were incubated with 60 nM TMRE for 30 min, washed 1× with sterile PBS, and 5,000 events were measured on a Guava EasyCyte 8HT flow cytometer (Luminex) using a 488 nm excitation laser and a 583/26 nm detector. Median fluorescence was plotted against an untreated culture using Prism 8.0 (GraphPad Software), and statistical significance was determined using RM one-way ANOVA with Geisser–Greenhouse correction. The experiment was performed in three biologically independent replicates.

The subject of test [8] is Babesia divergens intracellular stages. Briefly: Drug sensitivity assay, dose–response curves, B. divergens. In kind it is cell-based.
Excerpt: as §1

The mark [9] stands for this setting: intracellular stages, mean, n ≥ 3.

Some results are limits rather than exact numbers.

On to `N#CC(C#N)=NNc1ccc(OC(F)(F)F)cc1` [FCCP, carbonyl cyanide p-trifluoromethoxyphenylhydrazone, reference compound], for which the “Mitotracker staining of T. gondii, microscopic observation” value in [1] is given as “diffuse Mitotracker signal”.
For `CC(=O)N(O)CCCCCNC(=O)CCC(=O)N(O)CCCCCNC(=O)CCC(=O)N(O)CCCCCNCCCCCCCCCC[P+](c1ccccc1)(c1ccccc1)c1ccccc1` [compound 1, triphenylphosphine-C10-DFO], the results for the 50% effective concentration (EC50) (in the test with Human BJ Fibroblast; in test [2]) were more than 25 µM and 0.882 µM, respectively.
Turning to `CC(=O)N(O)CCCCCNC(=O)CCC(=O)N(O)CCCCCNC(=O)CCC(=O)N(O)CCCCCN(CCCCCCCCCC[P+](c1ccccc1)(c1ccccc1)c1ccccc1)CCCCCCCCCC[P+](c1ccccc1)(c1ccccc1)c1ccccc1.[Cl-].[Cl-]` [compound 2, (triphenylphosphine-C10)2-DFO], the EC50 (in general, the concentration giving half of the maximal effect) with Human BJ Fibroblast stood at 8.91 µM. In test [2], this molecule returned a half-maximal effective concentration (EC50) of 0.0569 µM and a T. brucei selectivity of 156.
In the same order, the values of `CC(=O)N(O)CCCCCNC(=O)CCC(=O)N(O)CCCCCNC(=O)CCC(=O)N(O)CCCCCN(CCCCCCCCCCCC[P+](c1ccccc1)(c1ccccc1)c1ccccc1)CCCCCCCCCCCC[P+](c1ccccc1)(c1ccccc1)c1ccccc1.Cl.[Cl-].[Cl-]` [compound 6, (triphenylphosphine-C12)2-DFO] are 3.63 µM, 0.0731 µM and 50.
In the same order, the values of `CC(=O)N(O)CCCCCNC(=O)CCC(=O)N(O)CCCCCNC(=O)CCC(=O)N(O)CCCCCN(CCCCCCCCCC[P+](Cc1ccccc1)(Cc1ccccc1)Cc1ccccc1)CCCCCCCCCC[P+](Cc1ccccc1)(Cc1ccccc1)Cc1ccccc1.Cl.[Cl-].[Cl-]` [compound 7, (tribenzylphosphine-C10)2-DFO] are 2.55 µM, 0.186 µM and 14.
In the test with Human BJ Fibroblast, `CCCCCCCC[P+](CCCCCCCC)(CCCCCCCC)CCCCCCCCCCN(CCCCCCCCCC[P+](CCCCCCCC)(CCCCCCCC)CCCCCCCC)CCCCCN(O)C(=O)CCC(=O)NCCCCCN(O)C(=O)CCC(=O)NCCCCCN(O)C(C)=O.Cl.[Cl-].[Cl-]` [compound 8, (trioctylphosphine-C10)2-DFO] returned an EC50 of 2.92 µM. In addition, in [2], the EC50 turned out to be 0.134 µM and the T. brucei selectivity is listed as 22.
For the molecule `Oc1ccccc1-c1nc(-c2ccccc2O)n(CCCCCCCCCC[P+](c2ccccc2)(c2ccccc2)c2ccccc2)n1.[Br-]` [compound 11, triphenylphosphineBr-C10-norbenzoic-DFX], in the test with T. gondii mitochondrion, the “morphology of the T. gondii mitochondrion” value is “altered the morphology of the organelle”. The EC50 in test [3] (intracellular stages, plaque assay in HFFs, 7 days, n ≥ 3) stood at 0.005 µM; in the test with Human BJ Fibroblast, 2.11 µM; in test [4] (axenic amastigotes, mean, n ≥ 3) it was 0.132 µM; in test [2] it was 0.0055 µM; in test [5] (setting [9]) it was 0.238 µM; in test [6] (bloodstream forms, mean, n ≥ 3), 0.0075 µM. In [8] (setting [9]), this molecule yielded an EC50 of 0.0172 µM. For the same molecule, the T. gondii selectivity in [3] (relative to fibroblasts) worked out at 422. Moreover, the L. mexicana selectivity in test [4] (relative to fibroblasts) worked out at 16. The T. brucei selectivity in test [2] is on record as more than 300. The P. falciparum selectivity in [5] (relative to fibroblasts) amounted to 9. For the same molecule, the “Mitotracker staining of T. gondii, microscopic observation” value in test [1] is “strong decrease in Mitotracker staining”. The molecule further showed a T. gambiense selectivity in test [6] (relative to fibroblasts) of 282. Further, in test [7], the “mitochondrial membrane potential of T. brucei (relative to untreated)” value was “less than 50%”. In addition, the B. divergens selectivity in test [8] (relative to fibroblasts) was found to be 122.
In the test with Human BJ Fibroblast, `O=C(NCCCCCCCC[P+](c1ccccc1)(c1ccccc1)c1ccccc1)c1ccc(-n2nc(-c3ccccc3O)nc2-c2ccccc2O)cc1.[Cl-]` [compound 12, triphenylphosphine-C8-DFX] gave an EC50 of 1.97 µM. In test [2], the EC50 was 0.0358 µM and the T. brucei selectivity is 55.
In the same order, the values of `O=C(NCCCCCC[P+](c1ccccc1)(c1ccccc1)c1ccccc1)c1ccc(-n2nc(-c3ccccc3O)nc2-c2ccccc2O)cc1.[Cl-]` [compound 13, triphenylphosphine-C6-DFX] are 15 µM, 0.0498 µM and 302.
Regarding `CC(=O)N(O)CCCCCNC(=O)CCC(=O)N(O)CCCCCNC(=O)CCC(=O)N(O)CCCCCN` [compound 16, deferoxamine, reference compound], the half-maximal effective concentration (EC50) (with Human BJ Fibroblast; in test [2] (Trypanosoma brucei)) was more than 25 µM each time.
For the molecule `O=C(O)c1ccc(-n2nc(-c3ccccc3O)nc2-c2ccccc2O)cc1` [compound 17, deferasirox, reference compound], in the test on T. gondii mitochondrion, the “morphology of the T. gondii mitochondrion” value was “largely preserved”. The results for the EC50 (in the test with Human BJ Fibroblast; in [2] (Trypanosoma brucei)) were more than 25 µM and 8.79 µM, respectively. The “T. gondii mitochondrial membrane potential, flow cytometric quantification of Mitotracker labeling” value in test [1] (DFX at 60 nM) is given as “no specific impact”.
As for “(dimethylphenylphosphine-C10)2-DFO [compound 9]”, the concentration giving a half-maximal response (EC50) in the test on Human BJ Fibroblast was more than 25 µM; in test [2], 1.15 µM. Also, the “decrease in antiparasitic activity compared with compound 2” value in [2] (T. brucei) was approximately 20 fold.
In the case of (tributylamine-C10)2-DFO [compound 3], the results for the concentration for a half-maximal effect (EC50) (in the test on Human BJ Fibroblast; in test [2]) were 8.14 µM and 0.0736 µM, respectively. Further, in [2], the T. brucei selectivity is 111.
In the same order, the values of “(tributylphosphine-C10)2-DFO [compound 4]” are 2.84 µM, 0.281 µM and 10.
Taken in the same sequence, the figures for “(tricylohexylphosphine-C10)2-DFO [compound 5]” were 3.08 µM, 0.052 µM and 59.
Taken in the same sequence, the figures for “(triphenylphosphine-C10-triazole)2-DFO [compound 10]” were 4.13 µM, 0.134 µM and 31.
